One series deals with Sphaerotheca fuliginea. The series is described as follows: In vivo preventive test on Sphaerotheca fuliginea (powdery mildew on cucurbits). As to conditions: gherkin plants, preventive spray, evaluated 15 days after inoculation. The method, then:
The young plants of gherkin are treated by spraying the active ingredient prepared as described above. Control plants are treated only with an aqueous solution of acetone/Dimethyl sulfoxide/Tween®. After 24 hours, the plants are contaminated by spraying the leaves with an aqueous suspension of Sphaerotheca fuliginea spores.

The next series relates to Uromyces appendiculatus. The series is described as follows: In vivo preventive test on Uromyces appendiculatus (bean rust). Conditions: bean plants, preventive spray, evaluated 11 days after inoculation. The procedure: The young plants of bean are treated by spraying the active ingredient prepared as described above. Control plants are treated only with an aqueous solution of acetone/Dimethyl sulfoxide/Tween®. After 24 hours, the plants are contaminated by spraying the leaves with an aqueous suspension of Uromyces appendiculatus spores.

The test system of the next series is Botrytis cinerea. The series is described as follows: In vivo preventive test on Botrytis cinerea (grey mould). As to conditions: 100 ppm of active ingredient; gherkin plants, preventive spray; evaluated 4 to 5 days after inoculation. The method, then:
The young plants of gherkin are treated by spraying the active ingredient prepared as described above. Control plants are treated only with an aqueous solution of acetone/Dimethyl sulfoxide/Tween®. After 24 hours, the plants are contaminated by spraying the leaves with an aqueous suspension of Botrytis cinerea spores. The contaminated gherkin plants are incubated for 4 to 5 days at 17° C. and at 90% relative humidity.

In the next series the test system is Puccinia recondita. The series is described as follows: In vivo preventive test on Puccinia recondita (brown rust on wheat). Conditions: 500 ppm of active ingredient; wheat plants, preventive spray; evaluated 11 days after inoculation. The procedure:
The young plants of wheat are treated by spraying the active ingredient prepared as described above. Control plants are treated only with an aqueous solution of acetone/Dimethyl sulfoxide/Tween®. After 24 hours, the plants are contaminated by spraying the leaves with an aqueous suspension of Puccinia recondita spores.

Another series concerns Pyrenophora teres. The series is described as follows: In vivo preventive test on Pyrenophora teres (net blotch on barley). Conditions: 500 ppm of active ingredient; barley plants, preventive spray; evaluated 14 days after inoculation. The method, then:
The young plants of barley are treated by spraying the active ingredient prepared as described above. Control plants are treated only with an aqueous solution of acetone/Dimethyl sulfoxide/Tween®. After 24 hours, the plants are contaminated by spraying the leaves with an aqueous suspension of Pyrenophora teres spores.

A further series relates to Septoria tritici. The series is described as follows: In vivo preventive test on Septoria tritici (leaf spot on wheat). As to conditions: 500 ppm of active ingredient; wheat plants, preventive spray; evaluated 24 days after inoculation. The procedure: The young plants of wheat are treated by spraying the active ingredient prepared as described above. Control plants are treated only with an aqueous solution of acetone/Dimethyl sulfoxide/Tween®. After 24 hours, the plants are contaminated by spraying the leaves with an aqueous suspension of Septoria tritici spores.

Setting [1] is: method [a]: LC-MS at pH 2.7, 0.1% formic acid in water / acetonitrile gradient.
[2] abbreviates: method [b]: LC-MS at pH 7.8, 0.001 molar ammonium hydrogen carbonate in water / acetonitrile gradient.

Read-outs that look alike come from different tables or passages of the source. Marks after values point to notes of the source that are not given here.

One may read the LogP as the decadic logarithm of the partition coefficient of the neutral form, usually between octanol and water. Read a low LogP as lower lipophilicity.

As for `CC(C)(C)C(O)(Cc1cnc2ccccc2c1)Cn1cncn1` (centres unmarked) [Example I-1], the LogP (pH 2.7) was 1.18^[a].

In the case of `CC(C)(C)C(O)(Cc1ccc(Cl)nc1)Cn1cncn1` (centres unmarked) [Example I-2], the Eff. % was 98% in the series on Sphaerotheca fuliginea (500 ppm of active ingredient) and 77% in the series on Uromyces appendiculatus (500 ppm of active ingredient). The LogP reads like this: (pH 2.7) 1.98^[b]; 1.98^[a]; (pH 7.8) 1.98^[b]; 1.98^[a].

In the case of `CC(C)(C)C(O)(Cc1ccc2ccccc2n1)Cn1cncn1` (centres unmarked) [Example I-8], in the series with Sphaerotheca fuliginea (100 ppm of active ingredient), the Eff. % was 79%. The LogP under setting [1] is 1.51^[a].

`CC(C)(C)C(O)(Cc1cc(Cl)nc(Cl)c1)Cn1cncn1` (centres unmarked) [Example I-9] displayed an Eff. % with Sphaerotheca fuliginea (100 ppm of active ingredient) of 97%. Under “pH 2.7”, the LogP was 2.64^[a].

Take `CC(C)(C)C(O)(Cc1ccnc2ccccc12)Cn1cncn1` (centres unmarked) [Example I-10]: the Eff. % is listed as 97% in the series with Sphaerotheca fuliginea (100 ppm of active ingredient) and 85% with Uromyces appendiculatus (100 ppm of active ingredient). Further, for the setting “pH 2.7”, the LogP was 1.17^[a].

Consider `CC(C)(C)C(O)(Cc1cc(Cl)cc(Cl)n1)Cn1cncn1` (centres unmarked) [Example I-11], for which the LogP (pH 2.7) was 2.86^[a].

For the molecule `CC(C)(C)C(O)(Cc1ccc(Cl)c(Cl)n1)Cn1cncn1` (centres unmarked) [Example I-12], the LogP (pH 2.7) was 2.78^[a].

Regarding `CC(C)(C)C(O)(Cc1cccc(Cl)n1)Cn1cncn1` (centres unmarked) [Example I-13], the LogP (pH 2.7) is 2.30^[a].

On to `CCC(C)(C)C(O)(Cc1ccnc(Cl)c1)Cn1cncn1` (centres unmarked) [Example I-14], for which the Eff. % stood at 87% with Botrytis cinerea and 100% in the series on Sphaerotheca fuliginea (100 ppm of active ingredient). In addition, the LogP (pH 2.7) is 2.27^[a].

As for `CC(C)(C)C(O)(Cc1ccnc(Cl)c1)Cn1cncn1` (centres unmarked) [Example I-15], the Eff. % was found to be 100% in the series with Sphaerotheca fuliginea (100 ppm of active ingredient) and 91% with Uromyces appendiculatus (100 ppm of active ingredient). Where the note is “pH 2.7”, the LogP is 1.93^[a].

As for `CC(C)(C)C(O)(Cc1cc(Cl)ncc1F)Cn1cncn1` (centres unmarked) [Example I-16], the Eff. % was 100% in the series with Sphaerotheca fuliginea (100 ppm of active ingredient) and 84% in the series with Uromyces appendiculatus (100 ppm of active ingredient). Besides, the LogP (pH 2.7) is 2.16^[a].

Take `CC(C)(C)C(O)(Cc1cncc(Cl)n1)Cn1cncn1` (centres unmarked) [Example I-17]: the LogP (pH 2.7) was 1.89^[a].

For the molecule `CC(C)(C)C(O)(Cc1nccnc1Cl)Cn1cncn1` (centres unmarked) [Example I-18], the LogP (pH 2.7) is 2.01^[a].

As to `Cc1ncc(CC(O)(Cn2cncn2)C(C)(C)C)nc1Cl` (centres unmarked) [Example I-19], under “pH 2.7”, the LogP was 2.10^[a].

As to `Cc1cnc(CC(O)(Cn2cncn2)C(C)(C)C)c(Cl)n1` (centres unmarked) [Example I-20], for the setting “pH 2.7”, the LogP is 2.21^[a].

Take `CC(C)(C)C(O)(Cc1cnccn1)Cn1cncn1` (centres unmarked) [Example I-21]: the LogP (pH 2.7) was 1.39^[a].

With `CC(C)(C)C(O)(Cc1cc(Cl)ccn1)Cn1cncn1` (centres unmarked) [Example I-22], the LogP (pH 2.7) was 1.87^[a].

Regarding `Cc1cccc(CC(O)(Cn2cncn2)C(C)(C)C)n1` (centres unmarked) [Example I-23], the LogP (pH 2.7) is 0.63^[a].

With `CCOC(=O)OC(Cc1cccnc1Cl)(Cn1cncn1)C(C)(C)C` (centres unmarked) [Example I-24], the Eff. % in the series on Puccinia recondita is listed as 86%; in the series with Pyrenophora teres, 75%; with Septoria tritici, 100%; with Sphaerotheca fuliginea (500 ppm of active ingredient), 100%; with Uromyces appendiculatus (500 ppm of active ingredient), 97%. Further, the LogP was 2.67 (pH 2.7) and 2.56 (pH 7.8).

The molecule `CC(C)(C)C(O)(Cc1cncc(Oc2ccc(Cl)cc2)n1)Cn1cncn1` (centres unmarked) [Example I-25] displayed an Eff. % with Puccinia recondita of 71%. Also, the LogP (pH 2.7) was 2.98^[a].

For the molecule `COC(C)(C)C(O)(Cc1ccncc1Cl)Cn1cncn1` (centres unmarked) [Example I-26], the Eff. % in the series with Puccinia recondita amounted to 89%; in the series with Pyrenophora teres it was 71%; in the series on Septoria tritici, 97%; with Sphaerotheca fuliginea (500 ppm of active ingredient), 100%; in the series with Uromyces appendiculatus (500 ppm of active ingredient), 100%. Further, the LogP (pH 2.7) is 1.48^[a].

`CC(C)(C)C(O)(Cc1c(Cl)cncc1Cl)Cn1cncn1` (centres unmarked) [Example I-28]: for the setting “pH 2.7”, the LogP is 2.34^[a].

As for `CC(C)CCC(O)(Cc1ccncc1Cl)Cn1cncn1` (centres unmarked) [Example I-31], the Eff. % is recorded as 89% with Puccinia recondita, 100% in the series with Septoria tritici, 100% in the series with Sphaerotheca fuliginea (500 ppm of active ingredient) and 96% in the series on Uromyces appendiculatus (500 ppm of active ingredient). For the setting “pH 2.7”, the LogP is 2.00^[a].

On to `CCOC(C)(C)C(O)(Cc1ccncc1Cl)Cn1cncn1` (centres unmarked) [Example I-32], for which the Eff. % with Puccinia recondita came to 83%; in the series with Sphaerotheca fuliginea (500 ppm of active ingredient), 98%; with Uromyces appendiculatus (500 ppm of active ingredient), 99%. The LogP reads like this: (pH 2.7) 1.90; (pH 7.8) 2.04.

As to `CC(C)(C)C(O)(Cc1nc(Cl)ccc1Cl)Cn1cncn1` (centres unmarked) [Example I-33], the LogP (pH 2.7) was 2.82^[a].

Regarding `CC(C)(C)C(=O)Cc1ncc(Cl)cc1Cl` [Example V-1], under setting [1], the LogP was 3.33^[a].

Take `CC(C)(C)C(=O)Cc1cnc2ccccc2c1` [Example V-2]: under setting [1], the LogP was 1.60^[a].

In the case of `CC(C)(C)C(=O)Cc1ccc(Cl)nc1` [Example V-3], under setting [1], the LogP was 2.47^[a].

Turning to `CCC(C)(CC)C(=O)Cc1ccncc1Cl` [Example V-5], the LogP under setting [1] was 3.04^[a].

For `CC(C)C(C)(C)C(=O)Cc1ccncc1Cl` [Example V-6], the LogP under setting [1] was 3.00^[a].

With `CC(C)(C)C(=O)Cc1cccnc1` [Example V-7], the LogP under setting [1] is recorded as 0.41 and the LogP under setting [2] was 1.71.

As for `CC(C)(C)C(=O)Cc1ccncc1` [Example V-8], the LogP runs as follows: under setting [1], 0.35; under setting [2], 1.75.

As for `CC(C)(C)C1(Cc2ncc(Cl)cc2Cl)CO1` (centres unmarked) [XII-1], under setting [1], the LogP was 4.06^[a].

Regarding `CC(C)(C)C1(Cc2cnc3ccccc3c2)CO1` (centres unmarked) [XII-2], the LogP under setting [1] was 1.86^[a].

In the case of `CC(C)(C)C1(Cc2ccncc2F)CO1` (centres unmarked) [XII-7], the LogP under setting [1] was 2.31^[a].

As to `CCC(C)(C)C1(Cc2ccncc2F)CO1` (centres unmarked) [XII-8], the LogP under setting [1] was 2.76^[a].

For the molecule `CC(C)C(C)(C)C1(Cc2ccncc2F)CO1` (centres unmarked) [XII-9], the LogP under setting [1] was 3.19^[a].

As to `CCC(C)(C)C1(Cc2ccnc(Cl)c2)CO1` (centres unmarked) [XII-10], the LogP under setting [1] is 3.51^[a].

With `CC(C)C(C)(C)C1(Cc2ccnc(Cl)c2)CO1` (centres unmarked) [XII-11], the LogP under setting [1] was 3.94^[a].

Regarding `CC(C)(C)C1(Cc2ccnc(Cl)c2)CO1` (centres unmarked) [XII-12], the LogP under setting [1] is 3.06^[a].

As for `CC(C)C(C)(C)C1(Cc2cc(Cl)ncc2F)CO1` (centres unmarked) [XII-13], under setting [1], the LogP is 4.34^[a].

In the case of `CCC(C)(C)C1(Cc2cc(Cl)ncc2F)CO1` (centres unmarked) [XII-14], the LogP under setting [1] was 3.89^[a].

Take `CC(C)(C)C1(Cc2cc(Cl)ncc2F)CO1` (centres unmarked) [XII-15]: the LogP under setting [1] is 3.42^[a].

Consider `CC(C)C(C)(C)C1(Cc2ccncc2Cl)CO1` (centres unmarked) [XII-16], for which the LogP under setting [1] was 3.75^[a].

As for `CCC(C)(C)C1(Cc2ccncc2Cl)CO1` (centres unmarked) [XII-17], the LogP under setting [1] is 3.33^[a].

`CC(C)(C)C1(Cc2cc(F)ncc2Cl)CO1` (centres unmarked) [XII-18]: the LogP under setting [1] was 3.65^[a].

Regarding `CCC(C)(C)C1(Cc2cc(F)ncc2Cl)CO1` (centres unmarked) [XII-19], under setting [1], the LogP is 4.17^[a].

`CC(C)(C)C1(Cc2ccnc(Cl)c2F)CO1` (centres unmarked) [XII-20]: the LogP under setting [1] is 3.37^[a].

As for `CC(C)(C)C1(Cc2c(Cl)cncc2Cl)CO1` (centres unmarked) [XII-21], the LogP under setting [1] is 3.89^[a].

On to `CCC(C)(C)C1(Cc2c(Cl)cncc2Cl)CO1` (centres unmarked) [XII-22], for which the LogP under setting [1] was 4.41^[a].

On to `CCCC(C)(C)C1(Cc2ccncc2Cl)CO1` (centres unmarked) [XII-23], for which the LogP under setting [1] was 2.03^[a].

Source of the values: US9668481B2, “Triazole derivatives” (priority 2013, dated 2017).
